Reference: ChEMBL document CHEMBL3769305, “Glucose-functionalized amino-OPEs as biocompatible photosensitizers in PDT” (Eur J Med Chem, 2016)

Assay: Induction of singlet-oxygen generation at 5 x 10^-5 M irradiated at 380 nm by uric acid degradation assay
Format: physicochemical
Details: 0.38 µM; call rule not given here

Activity: Not Active
Structure (SMILES): COc1cc(C#Cc2cc(OC)c(C#Cc3cc(OC)c(C#CCO[C@@H]4O[C@H](CO)[C@@H](O)[C@H](O)[C@H]4O)cc3OC)cc2OC)c(OC)cc1C#CCO[C@@H]1O[C@H](CO)[C@@H](O)[C@H](O)[C@H]1O
